Like-named read-outs stand apart in the source and are kept apart here.
Tested on: human Ewing's sarcoma DM101
Type: in vivo
Conditions: for MTTE / T-C: volume endpoint 2000 mm^3; for tumor volume changes from baseline, Median +/− MAD: nude mice bearing DM101 Ewing's sarcoma; for Tumor Volume Data (Day 11) Median / ΔT/ΔC %: day 11
Method: The resultant solution contains 10 mg/mL of cabazitaxel. Stock solution of cabazitaxel was then diluted in 0.9% sodium chloride.
This efficacy may be quantified, for example, as changes in tumor volume for each treated (T) and control (C) group, which are calculated for each animal and each day by subtracting the tumor volume on the day of first treatment (staging day) from the tumor volume on the specified observation day. This allows calculating the tumor growth inhibition: ΔT/ΔC=(median delta T/median delta C)×100. Individual tumor volume changes from baseline are thereafter analyzed by a non-parametric two-way ANOVA-TYPE (with factors: group and repeated days) followed by a post-hoc contrasts analysis, with Bonferroni-Holm adjustment for multiplicity, comparing all treated groups to the control group. […] A probability less than 5% (p<0.05) was considered as significant.
Based on the National Cancer Institute (NCl) standards, a ΔT/ΔC≦40% is the minimal level required to declare activity.
This efficacy may also be quantified by the number of tumor regressions observed after therapy. Individual mice reporting a tumor volume ≦50% of the Day 0 measurement for two consecutive measurements over a seven day period were considered partial responders (PR). Individual mice lacking palpable tumors (<4×4 mm^2 for two consecutive measurements over a seven day period) were classified as complete responders (CR); a CR that persisted until study completion was considered a tumor-free survivor (TFS).
Efficacy could also be determined at study completion, using tumor growth delay (T-C) in days, which is calculated using the median time to endpoint (MTTE) value for each treatment (T) group versus control (C). A Log Rank multiple comparison test with Bonferroni-Holm adjustment for multiplicity was applied on individual TTE to compare the treated groups to the control group.
The animals subjected to the experiment are subcutaneously grafted unilaterally with approximately 30 mg of a tumor fragment from low passage pediatric patient-derived tumor xenografts. The animals are implanted with a human patient-derived pediatric tumor xenografted in immuno-compromised mice (Harlan; nu/nu). Several days post tumor implantation, mice are randomized according to their tumor burden to the different groups of treatments and controls. The agents are dosed intravenously at 5.8, 9.3, 15 or 24.2 mg/kg every 4 days for a total of 3 doses (q4d×3) to mice bearing a tumor burden at start of therapy (day 0) ranged from 125 to 250 mm^3.
Beginning Day 0, animals were observed daily and weighed twice weekly using a digital scale; data including individual and mean gram weights (Mean We±SD), mean percent weight change versus Day 0 were recorded for each group. Animal deaths were recorded daily and designated as drug-related (D), technical (T), tumor related (B), or unknown (U) based on weight loss and gross observation; single agent or combination groups reporting a mean >20% for a period of 7 days and/or >10% mortality were considered above the maximum tolerated dose (MTD) for that treatment on the evaluated regimen.
The selected tumor model, DM101, was a low passage patient-derived tumor xenograft derived from an Ewing's sarcoma taken from the bone of a patient.
The following end points were used: • Toxicity was declared at dosages inducing ≧20% body weight loss or ≧10% drug death; • Antitumor efficacy was determined by calculating the ΔT/ΔC value in percent on day 11 post treatment initiation, according to the above mentioned formula; • Individual tumor volume changes from baseline were analyzed by a non-parametric two-way ANOVA-TYPE (with factors: group and repeated day from 4 to 14) followed by a post-hoc contrasts analysis, with Bonferroni-Holm adjustment for multiplicity, comparing all treated groups to the control group on day 11. […] The volume endpoint for T-C calculations was chosen to be 2000 mm^3.

SMILES: CC(=O)O[C@@]12CO[C@@H]1C[C@H](O)[C@@]1(C)C(=O)[C@H](O)C3=C(C)[C@@H](OC(=O)[C@H](O)[C@@H](NC(=O)OC(C)(C)C)c4ccccc4)C[C@@](O)([C@@H](OC(=O)c4ccccc4)[C@H]21)C3(C)C [Docetaxel, docetaxel]
- #CR (5.8 mg/kg i.v./q4d × 3): 0/0/0
- #PR (5.8 mg/kg i.v./q4d × 3): 0/0/0
- #TFS (5.8 mg/kg i.v./q4d × 3): 0/0/0
- Drug Deaths Total (5.8 mg/kg i.v./q4d × 3): 0
- Weight Nadir % (5.8 mg/kg i.v./q4d × 3): −1%
- Weight Nadir Day (5.8 mg/kg i.v./q4d × 3): 4
- Tumor Volume Data (Day 11) Median (5.8 mg/kg i.v./q4d × 3): 366 mm^3
- MTTE (5.8 mg/kg i.v./q4d × 3): 35 days
- T-C (5.8 mg/kg i.v./q4d × 3): 18.1 days
- tumor volume changes from baseline, Median +/− MAD (5.8 mg/kg, DAY 4): 51 +/− 38
- tumor volume changes from baseline, Median +/− MAD (5.8 mg/kg, DAY 7): 98 +/− 79
- tumor volume changes from baseline, Median +/− MAD (5.8 mg/kg, DAY 11): 202 +/− 183
- tumor volume changes from baseline, Median +/− MAD (5.8 mg/kg, DAY 14): 446 +/− 393
- tumor volume changes from baseline, Median +/− MAD (5.8 mg/kg, DAY 17): 640 +/− 621
- tumor volume changes from baseline, Median +/− MAD (5.8 mg/kg, DAY 20): 813 +/− 756
- tumor volume changes from baseline, Median +/− MAD (5.8 mg/kg, DAY 25): 766 +/− 478
- tumor volume changes from baseline, Median +/− MAD (5.8 mg/kg, DAY 28): 1140 +/− 564
- tumor volume changes from baseline, Median +/− MAD (5.8 mg/kg, DAY 32): 1694 +/− 281
- #CR (9.3 mg/kg i.v./q4d × 3): 4
- #PR (9.3 mg/kg i.v./q4d × 3): 4
- #TFS (9.3 mg/kg i.v./q4d × 3): 1
- Drug Deaths Total (9.3 mg/kg i.v./q4d × 3): 0
- Weight Nadir % (9.3 mg/kg i.v./q4d × 3): −4%
- Weight Nadir Day (9.3 mg/kg i.v./q4d × 3): 7
- Tumor Volume Data (Day 11) Median (9.3 mg/kg i.v./q4d × 3): 505 mm^3
- ΔT/ΔC % (9.3 mg/kg i.v./q4d × 3): 36.8%
- MTTE (9.3 mg/kg i.v./q4d × 3): 30.5 days
- T-C (9.3 mg/kg i.v./q4d × 3): 13.6 days
- tumor volume changes from baseline, Median +/− MAD (9.3 mg/kg, DAY 4): 25 +/− 25
- tumor volume changes from baseline, Median +/− MAD (9.3 mg/kg, DAY 7): 96 +/− 172
- tumor volume changes from baseline, Median +/− MAD (9.3 mg/kg, DAY 11): 301 +/− 223
- tumor volume changes from baseline, Median +/− MAD (9.3 mg/kg, DAY 14): 472 +/− 550
- tumor volume changes from baseline, Median +/− MAD (9.3 mg/kg, DAY 17): 750 +/− 828
- tumor volume changes from baseline, Median +/− MAD (9.3 mg/kg, DAY 20): 813 +/− 891
- tumor volume changes from baseline, Median +/− MAD (9.3 mg/kg, DAY 25): −78 +/− 110
- tumor volume changes from baseline, Median +/− MAD (9.3 mg/kg, DAY 28): −78 +/− 36
- tumor volume changes from baseline, Median +/− MAD (9.3 mg/kg, DAY 32): −78 +/− 34
- #CR (15 mg/kg i.v./q4d × 3): 4
- #PR (15 mg/kg i.v./q4d × 3): 4
- #TFS (15 mg/kg i.v./q4d × 3): 1
- Drug Deaths Total (15 mg/kg i.v./q4d × 3): 0
- Weight Nadir % (15 mg/kg i.v./q4d × 3): −6%
- Weight Nadir Day (15 mg/kg i.v./q4d × 3): 14
- Tumor Volume Data (Day 11) Median (15 mg/kg i.v./q4d × 3): 204 mm^3
- ΔT/ΔC % (15 mg/kg i.v./q4d × 3): 8.9%
- MTTE (15 mg/kg i.v./q4d × 3): 50.9 days
- T-C (15 mg/kg i.v./q4d × 3): 34 days
- CR (15 mg/kg q4d×3 IV): 4/9
- TFS (15 mg/kg q4d×3 IV): 1/9
- tumor volume changes from baseline, Median +/− MAD (15 mg/kg, DAY 4): 26 +/− 25
- tumor volume changes from baseline, Median +/− MAD (15 mg/kg, DAY 7): 73 +/− 109
- tumor volume changes from baseline, Median +/− MAD (15 mg/kg, DAY 11): 73 +/− 186
- tumor volume changes from baseline, Median +/− MAD (15 mg/kg, DAY 14): 73 +/− 251
- tumor volume changes from baseline, Median +/− MAD (15 mg/kg, DAY 17): 169 +/− 347
- tumor volume changes from baseline, Median +/− MAD (15 mg/kg, DAY 20): 290 +/− 468
- tumor volume changes from baseline, Median +/− MAD (15 mg/kg, DAY 25): −78 +/− 100
- tumor volume changes from baseline, Median +/− MAD (15 mg/kg, DAY 28): −84.5 +/− 70
- tumor volume changes from baseline, Median +/− MAD (15 mg/kg, DAY 32): −91 +/− 40
- #CR (24.2 mg/kg i.v./q4d × 3): 3
- #PR (24.2 mg/kg i.v./q4d × 3): 4
- #TFS (24.2 mg/kg i.v./q4d × 3): 2
- Drug Deaths Total (24.2 mg/kg i.v./q4d × 3): 0
- Weight Nadir % (24.2 mg/kg i.v./q4d × 3): −17%
- Weight Nadir Day (24.2 mg/kg i.v./q4d × 3): 14
- Tumor Volume Data (Day 11) Median (24.2 mg/kg i.v./q4d × 3): 300 mm^3
- ΔT/ΔC % (24.2 mg/kg i.v./q4d × 3): 14.9%
- MTTE (24.2 mg/kg i.v./q4d × 3): 32.3 days
- T-C (24.2 mg/kg i.v./q4d × 3): 15.4 days
- CR (24.2 mg/kg q4d×3 IV): 3/9
- TFS (24.2 mg/kg q4d×3 IV): 2/9
- tumor volume changes from baseline, Median +/− MAD (24.2 mg/kg, DAY 4): 26 +/− 40
- tumor volume changes from baseline, Median +/− MAD (24.2 mg/kg, DAY 7): 122
- tumor volume changes from baseline, Median +/− MAD (24.2 mg/kg, DAY 11): 122
- tumor volume changes from baseline, Median +/− MAD (24.2 mg/kg, DAY 14): 122
- tumor volume changes from baseline, Median +/− MAD (24.2 mg/kg, DAY 17): 122
- tumor volume changes from baseline, Median +/− MAD (24.2 mg/kg, DAY 20): 394
- tumor volume changes from baseline, Median +/− MAD (24.2 mg/kg, DAY 25): 351.5
- tumor volume changes from baseline, Median +/− MAD (24.2 mg/kg, DAY 28): 681
- tumor volume changes from baseline, Median +/− MAD (24.2 mg/kg, DAY 32): 254

From patent US20140350273A1, “PEDIATRIC USES OF CABAZITAXEL” (AVENTIS PHARMA S.A., priority 2012, published 2014)
